tested on: JAK1-dependent STAT6 phosphorylation downstream of IL-13 stimulation in TF-1 human erythroleukemia cells; experiment: cells; settings: TF-1, read-out: IL-13-pSTAT6 IC50

IC50 [nM]	SMILES
40.9	O=C(CCC(F)(F)F)N1CC=C(c2cccn3nc(Nc4ccc(C(=O)N5CCCC6(CNCCO6)C5)cc4)nc23)CC1 (centres unmarked) [Example 2-190, 4,4,4-trifluoro-1-[4-[2-[4-(1-oxa-4,8-diazaspiro[5.5]undecane-8-carbonyl)anilino]-[1,2,4]triazolo[1,5-a]pyridin-8-yl]-3,6-dihydro-2H-pyridin-1-yl]butan-1-one]
63.7	O=C(CCC(F)(F)F)N1CC=C(c2cccn3nc(Nc4ccc(C(=O)N5CCC6(CCCNC6)CC5)cc4)nc23)CC1 [Example 2-191, 1-[4-[2-[4-(2,9-diazaspiro[5.5]undecane-9-carbonyl)anilino]-[1,2,4]triazolo[1,5-a]pyridin-8-yl]-3,6-dihydro-2H-pyridin-1-yl]-4,4,4-trifluoro-butan-1-one]
213	O=C(NCC1CCCNC1)c1ccc(Nc2nc3c(C4=CCN(C(=O)CCC(F)(F)F)CC4)cccn3n2)cc1 (centres unmarked) [Example 2-192, N-(3-piperidylmethyl)-4-[[8-[1-(4,4,4-trifluorobutanoyl)-3,6-dihydro-2H-pyridin-4-yl]-[1,2,4]triazolo[1,5-a]pyridin-2-yl]amino]benzamide]
278	O=C(NCCC1CCCNC1)c1ccc(Nc2nc3c(C4=CCN(C(=O)CCC(F)(F)F)CC4)cccn3n2)cc1 (centres unmarked) [Example 2-193, N-[2-(3-piperidyl)ethyl]-4-[[8-[1-(4,4,4-trifluorobutanoyl)-3,6-dihydro-2H-pyridin-4-yl]-[1,2,4]triazolo[1,5-a]pyridin-2-yl]amino]benzamide]
94.2	NCCNC(=O)c1ccc(Nc2nc3c(C4=CCN(C(=O)CCC(F)(F)F)CC4)cccn3n2)cc1 [Example 2-194, N-(2-aminoethyl)-4-[[8-[1-(4,4,4-trifluorobutanoyl)-3,6-dihydro-2H-pyridin-4-yl]-[1,2,4]triazolo[1,5-a]pyridin-2-yl]amino]benzamide]
163	O=C(CCC(F)(F)F)N1CC=C(c2cccn3nc(Nc4ccc(C(=O)N5CCCNCC5)cc4)nc23)CC1 [Example 2-195, 1-[4-[2-[4-(1,4-diazepane-1-carbonyl)anilino]-[1,2,4]triazolo[1,5-a]pyridin-8-yl]-3,6-dihydro-2H-pyridin-1-yl]-4,4,4-trifluoro-butan-1-one]
29.9	CC1CN(C(=O)c2ccc(Nc3nc4c(C5=CCN(C(=O)CCC(F)(F)F)CC5)cccn4n3)cc2)CCN1 (centres unmarked) [Example 2-196, 4,4,4-trifluoro-1-[4-[2-[4-(3-methylpiperazine-1-carbonyl)anilino]-[1,2,4]triazolo[1,5-a]pyridin-8-yl]-3,6-dihydro-2H-pyridin-1-yl]butan-1-one]
295	O=C(CCC(F)(F)F)N1CC=C(c2cccn3nc(Nc4ccc(C(=O)N5CCC6(CCN6)CC5)cc4)nc23)CC1 [Example 2-197, 1-[4-[2-[4-(1,7-diazaspiro[3.5]nonane-7-carbonyl)anilino]-[1,2,4]triazolo[1,5-a]pyridin-8-yl]-3,6-dihydro-2H-pyridin-1-yl]-4,4,4-trifluoro-butan-1-one]
53.9	O=C(CCC(F)(F)F)N1CC=C(c2cccn3nc(Nc4ccc(C(=O)N5CCC6(CCCN6)CC5)cc4)nc23)CC1 [Example 2-198, 1-[4-[2-[4-(1,8-diazaspiro[4.5]decane-8-carbonyl)anilino]-[1,2,4]triazolo[1,5-a]pyridin-8-yl]-3,6-dihydro-2H-pyridin-1-yl]-4,4,4-trifluoro-butan-1-one]
4.2	CN(Cc1ccccn1)C(=O)c1ccc(Nc2nc3c(C4=CCN(C(=O)CCC(F)(F)F)CC4)cccn3n2)cc1 [Example 2-199, N-methyl-N-(2-pyridylmethyl)-4-[[8-[1-(4,4,4-trifluorobulanoyl)-3,6-dihydro-2H-pyridin-4-yl]-[1,2,4]triazolo[1,5-a]pyridin-2-yl]amino]benzamide]
4.1	O=C(CCC(F)(F)F)N1CC=C(c2cccn3nc(Nc4ccc(C(=O)N5CCN6CCCC6C5)cc4)nc23)CC1 (centres unmarked) [Example 2-200, 1-[4-[2-[4-(3,4,6,7,8,8a-hexahydro-1H-pyrrolo[1,2-a]pyrazine-2-carbonyl)anilino]-[1,2,4]triazolo[1,5-a]pyridin-8-yl]-3,6-dihydro-2H-pyridin-1-yl]-4,4,4-trifluoro-butan-1-one]
6	CN1CC2CC(C1)N(C(=O)c1ccc(Nc3nc4c(C5=CCN(C(=O)CCC(F)(F)F)CC5)cccn4n3)cc1)C2 (centres unmarked) [Example 2-201, 4,4,4-trifluoro-1-[4-[2-[4-(3-methyl-3,6-diazabicyclo[3.2.1]octane-6-carbonyl)anilino]-[1,2,4]triazolo[1,5-a]pyridin-8-yl]-3,6-dihydro-2H-pyridin-1-yl]butan-1-one]
11.5	O=C(CCC(F)(F)F)N1CC=C(c2cccn3nc(Nc4ccc(C(=O)N5CCN(C6CC6)CC5)cc4)nc23)CC1 [Example 2-202, 1-[4-[2-[4-(4-cyclopropylpiperazine-1-carbonyl)anilino]-[1,2,4]triazolo[1,5-a]pyridin-8-yl]-3,6-dihydro-2H-pyridin-1-yl]-4,4,4-trifluoro-butan-1-one]
30.1	Cn1ccnc1CN1CCN(C(=O)c2ccc(Nc3nc4c(C5=CCN(C(=O)CCC(F)(F)F)CC5)cccn4n3)cc2)CC1 [Example 2-203, 4,4,4-trifluoro-1-[4-[2-[4-[4-[(1-methylimidazol-2-yl)methyl]piperazine-1-carbonyl]anilino]-[1,2,4]triazolo[1,5-a]pyridin-8-yl]-3,6-dihydro-2H-pyridin-1-yl]butan-1-one]
89.7	CC(=O)N1CC2(C1)CN(C(=O)c1ccc(Nc3nc4c(C5=CCN(C(=O)CCC(F)(F)F)CC5)cccn4n3)cc1)C2 [Example 2-204, 1-[4-[2-[4-(6-acetyl-2,6-diazaspiro[3.3]heptane-2-carbonyl)anilino]-[1,2,4]triazolo[1,5-a]pyridin-8-yl]-3,6-dihydro-2H-pyridin-1-yl]-4,4,4-trifluoro-butan-1-one]
10	CN1CC2CN(C(=O)c3ccc(Nc4nc5c(C6=CCN(C(=O)CCC(F)(F)F)CC6)cccn5n4)cc3)CC(C1)O2 [Example 2-205, 4,4,4-trifluoro-1-[4-[2-[4-(7-methyl-9-oxa-3,7-diazabicyclo[3.3.1]nonane-3-carbonyl)anilino]-[1,2,4]triazolo[1,5-a]pyridin-8-yl]-3,6-dihydro-2H-pyridin-1-yl]butan-1-one]
3.4	Cc1cncc(CNC(=O)c2ccc(Nc3nc4c(C5=CCN(C(=O)CCC(F)(F)F)CC5)cccn4n3)cc2)c1 [Example 2-206, N-[(5-methyl-3-pyridyl)methyl]-4-[[8-[1-(4,4,4-trifluorobutanoyl)-3,6-dihydro-2H-pyridin-4-yl]-[1,2,4]triazolo[1,5-a]pyridin-2-yl]amino]benzamide]
141	NCC1CN(C(=O)c2ccc(Nc3nc4c(C5=CCN(C(=O)CCC(F)(F)F)CC5)cccn4n3)cc2)C1 [Example 2-207, 1-[4-[2-[4-[3-(aminomethyl)azetidine-1-carbonyl]anilino]-[1,2,4]triazolo[1,5-a]pyridin-8-yl]-3,6-dihydro-2H-pyridin-1-yl]-4,4,4-trifluoro-butan-1-one]
4.4	CC1CCN(C2CCN(C(=O)c3ccc(Nc4nc5c(C6=CCN(C(=O)CCC(F)(F)F)CC6)cccn5n4)cc3)CC2)CC1 [Example 2-208, 4,4,4-trifluoro-1-[4-[2-[4-[4-(4-methyl-1-piperidyl)piperidine-1-carbonyl]anilino]-[1,2,4]triazolo[1,5-a]pyridin-8-yl]-3,6-dihydro-2H-pyridin-1-yl]butan-1-one]
29.9	COCCN(C(=O)c1ccc(Nc2nc3c(C4=CCN(C(=O)CCC(F)(F)F)CC4)cccn3n2)cc1)C1CCN(C)CC1 [Example 2-209, N-(2-methoxyethyl)-N-(1-methyl-4-piperidyl)-4-[[8-[1-(4,4,4-trifluorobutanoyl)-3,6-dihydro-2H-pyridin-4-yl]-[1,2,4]triazolo[1,5-a]pyridin-2-yl]amino]benzamide]
7.1	CCN(CC)C1CCN(C(=O)c2ccc(Nc3nc4c(C5=CCN(C(=O)CCC(F)(F)F)CC5)cccn4n3)cc2)C1 (centres unmarked) [Example 2-211, 1-[4-[2-[4-[3-(diethylamino)pyrrolidine-1-carbonyl]anilino]-[1,2,4]triazolo[1,5-a]pyridin-8-yl]-3,6-dihydro-2H-pyridin-1-yl]-4,4,4-trifluoro-butan-1-one]
8	CN(CCc1cccnc1)C(=O)c1ccc(Nc2nc3c(C4=CCN(C(=O)CCC(F)(F)F)CC4)cccn3n2)cc1 [Example 2-212, N-methyl-N-[2-(3-pyridyl)ethyl]-4-[[8-[1-(4,4,4-trifluorobutanoyl)-3,6-dihydro-2H-pyridin-4-yl]-[1,2,4]triazolo[1,5-a]pyridin-2-yl]amino]benzamide]
5.5	CN1CCCCC1CNC(=O)c1ccc(Nc2nc3c(C4=CCN(C(=O)CCC(F)(F)F)CC4)cccn3n2)cc1 (centres unmarked) [Example 2-214, N-[(1-methyl-2-piperidyl)methyl]-4-[[8-[1-(4,4,4-trifluorobutanoyl)-3,6-dihydro-2H-pyridin-4-yl]-[1,2,4]triazolo[1,5-a]pyridin-2-yl]amino]benzamide]
13.5	Cc1ccc(C2CCN(C(=O)c3ccc(Nc4nc5c(C6=CCN(C(=O)CCC(F)(F)F)CC6)cccn5n4)cc3)CC2)nc1 [Example 2-215, 4,4,4-trifluoro-1-[4-[2-[4-[4-(5-methyl-2-pyridyl)piperidine-1-carbonyl]anilino]-[1,2,4]triazolo[1,5-a]pyridin-8-yl]-3,6-dihydro-2H-pyridin-1-yl]butan-1-one]
7.4	Cc1cccc(CCNC(=O)c2ccc(Nc3nc4c(C5=CCN(C(=O)CCC(F)(F)F)CC5)cccn4n3)cc2)n1 [Example 2-216, N-[2-(6-methyl-2-pyridyl)ethyl]-4-[[8-[1-(4,4,4-trifluorobutanoyl)-3,6-dihydro-2H-pyridin-4-yl]-[1,2,4]triazolo[1,5-a]pyridin-2-yl]amino]benzamide]
9.5	CN(C)c1cc(CC2CCN(C(=O)c3ccc(Nc4nc5c(C6=CCN(C(=O)CCC(F)(F)F)CC6)cccn5n4)cc3)C2)ncn1 (centres unmarked) [Example 2-217, 1-[4-[2-[4-[3-[[6-(dimethylamino)pyrimidin-4-yl]methyl]pyrrolidine-1-carbonyl]anilino]-[1,2,4]triazolo[1,5-a]pyridin-8-yl]-3,6-dihydro-2H-pyridin-1-yl]-4,4,4-trifluoro-butan-1-one]
